Results reported in the METLIN SMRT retention time set (Domingo-Almenara et al. 2019).

test: gradient 5% acetonitrile 3 min, to 50% in 2 min, to 85% in 15 min, held 3 min, 100 µL/min; details: column: Zorbax Extend-C18 2.1 x 50 mm; eluents: water / acetonitrile, 0.1% formic acid
Method in brief: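 Standards, all pure, were combined into mixtures of ~100 molecules and run at 100 μL/min on a Zorbax Extend-C18 column (2.1 × 50 mm, 1.8 μm) with water and acetonitrile, each containing 0.1% formic acid. A coupled quadrupole time-of-flight mass spectrometer operated in positive and negative ionization mode. Retention time values come from computationally picked adduct peaks, each inspected manually.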

Row | SMILES | RP-LC retention time [s]
1 | Cc1cc(C)cc(NC(=O)NCC2(N3CCOCC3)CCOC2)c1 (configuration not stated) | 617
2 | Cc1noc(-c2nc(-c3ccc(Cl)c(F)c3)no2)n1 | 1090
3 | O=C(Cn1c(=O)c2nncn2c2ncccc21)N1CCN(c2cccc(Cl)c2)CC1 | 750
4 | CC(=O)Nc1c(C)cc(OCC(=O)O)cc1C | 649
5 | CCOCCCNC(=O)Nc1ccc2nc3n(c(=O)c2c1)CCCC3 | 563
6 | CN(C)C1CCCN(Cc2c(F)cccc2Cl)C1=O (configuration not stated) | 604
7 | CC(C)CC(=O)N1CC(c2nc(-c3ccc(F)cc3)no2)C2(CCOCC2)C1 (configuration not stated) | 926
8 | CN1C(=O)[C@H]2CN(Cc3cccc(OC(F)(F)F)c3)C[C@H]2C1=O | 682
9 | O=C(CSc1ccc(F)cc1)Nc1ccc2c(c1)N(C(=O)c1ccccc1)CCC2 | 874
10 | CCOC(=O)c1nc2ccccc2nc1N1CCN(c2ccccn2)CC1 | 666
11 | O=C(NCCc1csc(-c2cccs2)n1)C1CCN(S(=O)(=O)c2ccc(F)cc2)CC1 | 882
12 | CC(=O)c1ccc(S(=O)(=O)N2CCCC(C)(C(=O)NCc3ccc(F)cc3)C2)cc1 (configuration not stated) | 876
13 | Cn1cnc([N+](=O)[O-])c1Sc1nnnn1-c1ccccc1 | 715
14 | Cc1ccc(CNC(=O)c2ccc3ccnc(N4CCN(c5ccc(Cl)cc5)CC4)c3c2)o1 | 887
15 | CS(=O)(=O)N1C[C@H]2CCN(Cc3cn[nH]c3-c3ccccc3)C[C@H]21 | 574
16 | O=C(NC1CCCCC1)C1CCN(S(=O)(=O)c2cc(C(=O)N3CCCC3)cs2)CC1 | 765
17 | CC(C)c1ccc(-n2nc(N3CCN(C(=O)c4ccco4)CC3)ccc2=O)cc1 | 842
18 | O=C(Nc1ccc(C2(C(=O)N3CCN(c4ccc(F)cc4)CC3)CCC2)cc1)C1CC1 | 922
19 | CCn1cc(-c2ccc(C)cc2)cc1C(=O)N1CCOCC1 | 932
20 | Cc1noc(C)c1Cc1ccc(C(=O)N2CCC(N3C[C@H](O)C[C@H]3C(=O)NC3CCCCC3)CC2)o1 | 656

Row | SMILES | RP-LC retention time [s]
21 | O=C(Nc1nc(-c2ccccc2)cs1)C1Cc2ccccc2CN1S(=O)(=O)c1cccs1 (configuration not stated) | 1160
22 | Cc1cccc(NC(=O)N2CC(F)(F)C[C@H]2CN2CCCC2)c1C | 647
23 | CCOc1ccc(C(=O)N2CCC3(CC2)NC(=O)c2cc(Cl)ccc2N3C)cc1 | 853
24 | CCOc1ccccc1-c1noc(Cn2c(=O)n(C(C)CC)c(=O)c3ccccc32)n1 (configuration not stated) | 1140
25 | O=C(C1CCN(c2ccc(Sc3cccc(F)c3)nn2)CC1)N1CCN(c2ccccn2)CC1 | 626
26 | CCc1noc(CC2CCOC3(CCN(S(=O)(=O)c4c(C)cc(C)cc4C)CC3)C2)n1 (configuration not stated) | 1190
27 | CN1C(=O)C(c2c[nH]c3ccccc23)=C(c2c[nH]c3ccccc23)C1=O | 868
28 | Cc1cc(N2C(=O)CCS2(=O)=O)cc(C)c1S(=O)(=O)N1CCC(C(N)=O)CC1 | 648
29 | O=C(COc1ccccc1F)N1CCN(Cc2csc(-c3ccccc3)n2)CC1 | 606
30 | Cc1nccn1CC(=O)N1C[C@@H](C)[C@H](c2nc(-c3ccncc3)no2)C1 | 569
31 | CC1CCN(C(=O)C2CCN(S(=O)(=O)c3ccc(-c4noc(C5CC5)n4)cc3)CC2)CC1 | 1040
32 | O=C(CCC1CCCC1)NCCC1CCN(C(=O)Nc2cc(F)cc(F)c2)CC1 | 971
33 | O=C(NC1CCCCC1)C1CCN(c2ncccc2-c2nc(-c3ccc(Cl)cc3)no2)CC1 | 1230
34 | Cc1nc2nc(-c3ccc(Cl)cc3)nn2c(C)c1CC(=O)N1CCCC1 | 780
35 | CCOCCCNC(=O)Cn1c(=O)c2cccn2c2ccccc21 | 689
36 | O=C(NCc1ccco1)C1c2ccccc2C(=O)N(Cc2ccccc2)C12CCCC2 (configuration not stated) | 943
37 | CC(C)OC(=O)CSc1nnc2c(S(=O)(=O)N3CCN(c4ccc(F)cc4)CC3)cccn12 | 917
38 | O=C(Cn1nc2c3sc(N4CCCCC4)nc3ncn2c1=O)Nc1cc(F)cc(F)c1 | 828
39 | C=C1C(=O)O[C@@H]2[C@H]3O[C@]3(C)CC/C=C(\C)CC[C@@H]12 | 898
40 | CC(C)CCN1C(=O)CN(S(=O)(=O)c2ccccc2)CC1(C)C(=O)NCc1ccc(F)cc1 (configuration not stated) | 1030

Row | SMILES | RP-LC retention time [s]
41 | CC(C)(C)n1nnnc1C1CC2(CCOCC2)C(=O)N1Cc1ccccc1 (configuration not stated) | 769
42 | CCOC(=O)C(C)NC(=O)N1CCc2cc(-c3ccc(C(=O)N4CCOCC4)cc3)ccc21 (configuration not stated) | 751
43 | Cn1c(=O)n(C)c2cc(S(=O)(=O)c3ccccc3)c(NC(=O)Cc3cccc(F)c3)cc21 | 799
44 | Cc1oc(C(C)C)nc1C(=O)NCc1ccccc1C(F)(F)F | 1050
45 | CCSc1ccccc1C(=O)N1CCN(c2ccc(-c3ccccn3)nn2)CC1 | 649
46 | Cc1ccc(CNC(=O)C2(C)CN(S(C)(=O)=O)CC(=O)N2Cc2ccc(F)cc2)cc1 (configuration not stated) | 836
47 | CC(C)CCN1C(=O)C2CCCN2C(=O)c2ccccc21 (configuration not stated) | 797
48 | Fc1ccc(CN2CCC(Cc3nc(-c4ccncc4)n[nH]3)C2)c(F)c1 (configuration not stated) | 552
49 | CC(C)CCNC(=O)C1(C)Cn2nc(C(=O)NCc3ccccc3Cl)cc2C(=O)N1C (configuration not stated) | 814
50 | O=C(c1ccncc1)N1CCCN(c2cc(-c3ccc4c(c3)OCO4)[nH]n2)CC1 | 605
51 | CCCCN(C)C(=O)Cn1c(CN(C)C(=O)c2ccco2)nc2ccccc21 | 655
52 | O=C(Cc1csc(-c2ccccc2)n1)NCc1nc2ccccc2[nH]1 | 647
53 | O=C(CC1CCN(C(=O)c2ccc3oc(-c4ccccc4)nc3c2)CC1)NCC1CCCO1 (configuration not stated) | 718
54 | O=C(NCCCN1CCCCC1)c1cc2n(n1)CCCN(Cc1ccc(Cl)cc1)C2=O | 582
55 | CCOc1ccc(C2c3[nH]c4ccccc4c3CCN2C(=O)C2CCC2)cc1 (configuration not stated) | 1210
56 | Cc1nc(-c2csc(S(=O)(=O)N3CCCC(C(=O)NC4CCCCCCC4)C3)c2)no1 (configuration not stated) | 1060
57 | Cc1sc2ncnc(SCc3ccco3)c2c1C | 1150
58 | O=C(Nc1ccc(SCc2nnc(-c3ccccc3)o2)cc1)C1CC1 | 870
59 | CCOC(=O)N1CCN(C(=O)CSc2ccc(-n3cccn3)nn2)CC1 | 657

More lines, now with the values ahead:

Row | RP-LC retention time [s] | SMILES
60 | 809 | Cc1ccc(NC(=O)N2CCC(N3CCN(Cc4ccccc4)C(=O)C3=O)CC2)cc1Cl
61 | 773 | CN(C)CCN(C(=O)CCc1ccccc1)c1nc2ccc(F)cc2s1
62 | 743 | COc1cccc(N2CCN(C(=O)c3cn(-c4ccc(NC(=O)C5CC5)cn4)cn3)CC2)c1
63 | 852 | COc1ccc(NC(=O)N2CCN(c3cc(-n4nc(C)cc4C)ncn3)CC2)cc1Cl
64 | 579 | Cc1ccc(=O)n(CCNC(=O)c2cncc(Br)c2)n1
65 | 814 | Cc1nc(-c2noc(-c3ccc(F)cc3)n2)cn1CC(=O)NCc1cccs1
66 | 752 | COc1ccc(OC)c(NC(=O)c2ccc(-n3cnc(NC(=O)C4CC4)c3)cc2)c1
67 | 892 | O=C(CCn1c(N2CCCC2)nc2ccsc2c1=O)Nc1cccc(Cl)c1
68 | 719 | Cc1ccc(C(=O)NCc2nc(-c3ccc4c(c3)ncn4C3CCCC3)no2)cc1
69 | 944 | O=C(CSc1ccc(-c2cccc([N+](=O)[O-])c2)nn1)c1ccc(F)cc1
70 | 727 | Cc1ccc(-c2ocnc2C(=O)NCCCN2CCc3ccccc3C2)s1
71 | 736 | Cc1ccc(C)c(NC(=O)Cc2nnc(-c3cnccn3)o2)c1
72 | 824 | CC(C)S(=O)(=O)c1cc2c(cc1NC(=O)c1ccccc1Cl)n(C)c(=O)n2C
73 | 721 | CC(C)n1cnc(S(=O)(=O)N2CCC(C(=O)Nc3ccc4c(c3)OCCO4)CC2)c1
74 | 853 | COc1ccc(NC(=O)N2CCc3c(c(-c4nnc(-c5ccccc5Cl)o4)nn3C)C2)cc1
75 | 1300 | Cc1cc(C(=O)Nc2ccccc2F)nc2cc(-c3cccs3)nn12
76 | 761 | COc1ccc(OC)c(CNC(=O)C2CCCN(c3ncnc4c3oc3ccccc34)C2)c1 (configuration not stated)
77 | 729 | Cc1ccn2cc(-c3ccc(C)c(NS(=O)(=O)c4ccc(C)c(C)c4)c3)nc2c1
78 | 826 | O=C(Cn1cc(-c2ccccc2)c2ncn(C3CC3)c(=O)c21)Nc1ccc2c(c1)OCO2
79 | 884 | Cc1ccc(NC(=O)c2cn(-c3cc(N(C)C)ncn3)cn2)cc1F
80 | 629 | Cc1ccc(Cl)cc1-n1ncc2c(NCCN3CCOCC3)ncnc21
81 | 796 | COc1cc(NC(=O)CSC2CCc3ccccc3NC2=O)cc(OC)c1 (configuration not stated)
82 | 691 | CSc1cccc(NC(=O)CCc2c(-c3ccccc3)nc3ccccn23)c1
83 | 816 | O=C(Cc1nnc2cc(-c3nc(C4CC4)no3)ccn12)Nc1ccc(Cl)cc1
84 | 746 | COc1ccc(-c2nc(CNC(=O)Cn3cnc(-c4cccs4)cc3=O)cs2)cc1
85 | 757 | Cc1cccc(CNC(=O)C2CCN(Cc3cn(C)c4ccc(Cl)cc34)CC2)c1
86 | 728 | COCCc1noc(-c2ccc(=O)n(CC(=O)Nc3cc(F)ccc3F)c2)n1
87 | 816 | Cc1cnc2cc(Cl)ccc2c1SCC(=O)O
